What all share (format): biochemical
For one assay, the target named is T1, Human MMP14 (Homo sapiens, UniProt P50281).
T1 construct: purchased Biogenesis or Calbiochem 5980-1461 or 475935
Briefly: MMP14 inhibition experiment. The settings on record: concentration required for 50% inhibition of enzyme activity; read-out: IC50 value MMP-14. Summed up: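 Fluorescence assay: substrate Dnp-Pro-Cha-Gly-Cys(Me)-His-Ala-Lys(Nma)-NH2 (20 μM before equal-volume mixing) incubated at 37° C for 5 hours with 4 ng human MMP14.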

The target of the next assay is T2, Human MMP1 (Homo sapiens, UniProt P03956).
T2 construct: purchased Calbiochem 444208
T2 sequence (P03956 100-469): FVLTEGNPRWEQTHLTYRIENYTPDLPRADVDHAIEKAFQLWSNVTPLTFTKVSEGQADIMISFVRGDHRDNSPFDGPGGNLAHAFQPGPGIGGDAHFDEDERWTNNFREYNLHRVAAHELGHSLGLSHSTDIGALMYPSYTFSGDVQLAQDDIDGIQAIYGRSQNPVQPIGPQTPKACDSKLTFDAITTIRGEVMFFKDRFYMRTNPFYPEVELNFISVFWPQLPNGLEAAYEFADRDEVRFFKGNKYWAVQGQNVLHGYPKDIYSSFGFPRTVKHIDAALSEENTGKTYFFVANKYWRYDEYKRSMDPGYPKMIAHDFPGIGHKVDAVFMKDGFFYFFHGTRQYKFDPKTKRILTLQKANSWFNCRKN
Briefly: MMP1 inhibition experiment. The conditions noted are these: read-out: IC50 value MMP-1.

In the next assay the target is T3, Human MMP8 (Homo sapiens, UniProt P22894).
T3 construct: purchased Calbiochem 444229
The assay can be described thus: MMP8 inhibition experiment. The conditions noted are these: concentration required for 50% inhibition of enzyme activity; read-out: IC50 value MMP-8. The method, then: MMP inhibition experiment may be carried out using a fluorescent synthetic substrate according to, for example, the methods of Bickett et al. (D. Mark Bickett et al., Anal. Biochem., 1993, 212, 58-64) and Nagase et al. (H. Nagase et al., J. Biol. Chem., 1994, 269, 20952-20957). The methods of inhibition experiments carried out for various MMPs are described below.
Human MMP8 (Calbiochem #444229) in amount of 90 μL (30 ng) was activated by mixing with 10 μL of 10 mM APMA, followed by reaction for 1 hour at 37° C. This enzyme solution in amount of 10 μL was diluted to 90 μL with the assay buffer A, which was added to 90 μL of […] fluorescent substrate (MOCAc-Pro-Leu-Gly-Leu-A2pr(Dnp)-Ala-Arg-NH2, Peptide Institute, Inc., #3163-v) prepared in the assay buffer B, followed by reaction for 5 hours at 37° C.

Another assay deals with T4, Human MMP3 (Homo sapiens, UniProt P08254).
T4 construct: purchased Calbiochem 444217
The assay can be described thus: MMP3 inhibition experiment. The settings on record: concentration required for 50% inhibition of enzyme activity; read-out: IC50 value MMP-3. The method, boiled down:
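Fluorescence-quenched substrate NFF-3 (MOCAc/Dnp peptide, 20 μM as prepared) cleaved by 5 ng human MMP3 over 5 hours at 37° C, with inhibition measured from substrate fluorescence.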

For the next assay, the target named is T5, Human MMP2 (Homo sapiens, UniProt P08253).
T5 construct: purchased Calbiochem 444213
T5 sequence (P08253 110-660): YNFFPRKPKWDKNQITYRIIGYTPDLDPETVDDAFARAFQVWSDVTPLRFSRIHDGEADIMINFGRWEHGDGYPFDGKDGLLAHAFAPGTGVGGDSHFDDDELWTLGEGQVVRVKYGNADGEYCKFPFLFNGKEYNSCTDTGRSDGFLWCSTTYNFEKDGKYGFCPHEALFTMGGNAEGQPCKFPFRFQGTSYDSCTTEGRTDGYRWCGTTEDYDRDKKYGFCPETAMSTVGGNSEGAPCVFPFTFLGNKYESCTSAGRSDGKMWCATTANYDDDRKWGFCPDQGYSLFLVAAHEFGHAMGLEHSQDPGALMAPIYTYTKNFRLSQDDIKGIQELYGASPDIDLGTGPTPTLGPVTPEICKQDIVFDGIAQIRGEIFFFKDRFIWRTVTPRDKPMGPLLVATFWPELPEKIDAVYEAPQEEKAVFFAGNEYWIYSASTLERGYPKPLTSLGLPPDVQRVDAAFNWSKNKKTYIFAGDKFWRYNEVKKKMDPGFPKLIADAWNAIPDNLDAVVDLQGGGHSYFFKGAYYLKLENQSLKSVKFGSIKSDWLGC
Briefly: MMP2 inhibition experiment. The settings on record: concentration required for 50% inhibition of enzyme activity; read-out: IC50 value MMP-2.

Another assay has as its target T6, Human MMP13 (Homo sapiens, UniProt P45452).
T6 construct: purchased Chemicon CC068
Briefly: MMP13 inhibition experiment. The conditions noted are these: concentration required for 50% inhibition of enzyme activity; read-out: IC50 value MMP-13.

The next assay concerns the target T7, Human MMP9 (Homo sapiens, UniProt P14780).
T7 construct: purchased Calbiochem 444231
The assay can be described thus: MMP9 inhibition experiment. The settings on record: read-out: IC50 value MMP-9.

Another assay has as its target T8, Human MMP17 (Homo sapiens, UniProt Q9ULZ9).
T8 construct: purchased Calbiochem 475940
T8 sequence (Q9ULZ9 126-300 limits assumed): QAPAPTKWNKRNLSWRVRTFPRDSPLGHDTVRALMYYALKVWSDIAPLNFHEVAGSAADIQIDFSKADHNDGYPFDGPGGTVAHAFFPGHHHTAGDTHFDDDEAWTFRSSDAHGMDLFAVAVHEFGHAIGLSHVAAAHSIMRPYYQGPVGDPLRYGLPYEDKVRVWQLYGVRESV
Briefly: MMP17 inhibition test. The settings on record: concentration required for 50% inhibition of enzyme activity; read-out: IC50 value MMP-17.

In another assay the target is T9, TACE (Homo sapiens, UniProt P78536).
T9 construct: made in house; host or cells: mammalian cells or insect cells
Briefly: TACE inhibition experiment (in vitro).

Setting [1] is: concentration required for 50% inhibition of enzyme activity.

Where two headings read alike, the source gives them in different places.

T7 sequence (P14780 107-707 limits assumed): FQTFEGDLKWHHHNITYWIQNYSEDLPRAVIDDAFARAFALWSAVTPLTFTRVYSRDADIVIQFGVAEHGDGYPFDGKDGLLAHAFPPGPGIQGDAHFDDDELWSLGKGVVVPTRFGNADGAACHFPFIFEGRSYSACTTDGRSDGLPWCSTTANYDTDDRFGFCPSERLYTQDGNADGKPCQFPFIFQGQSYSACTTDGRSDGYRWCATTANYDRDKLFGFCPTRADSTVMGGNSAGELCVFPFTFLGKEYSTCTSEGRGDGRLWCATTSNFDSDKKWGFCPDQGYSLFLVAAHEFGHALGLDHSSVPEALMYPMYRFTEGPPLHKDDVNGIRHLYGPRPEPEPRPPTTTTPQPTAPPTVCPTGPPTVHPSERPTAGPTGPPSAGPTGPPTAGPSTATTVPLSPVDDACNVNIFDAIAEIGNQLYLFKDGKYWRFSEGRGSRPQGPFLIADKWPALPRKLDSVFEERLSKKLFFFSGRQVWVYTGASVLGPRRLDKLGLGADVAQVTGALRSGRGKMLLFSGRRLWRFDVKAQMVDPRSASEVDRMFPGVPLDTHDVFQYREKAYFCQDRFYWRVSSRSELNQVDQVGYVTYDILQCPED
T9 sequence (P78536 215-824): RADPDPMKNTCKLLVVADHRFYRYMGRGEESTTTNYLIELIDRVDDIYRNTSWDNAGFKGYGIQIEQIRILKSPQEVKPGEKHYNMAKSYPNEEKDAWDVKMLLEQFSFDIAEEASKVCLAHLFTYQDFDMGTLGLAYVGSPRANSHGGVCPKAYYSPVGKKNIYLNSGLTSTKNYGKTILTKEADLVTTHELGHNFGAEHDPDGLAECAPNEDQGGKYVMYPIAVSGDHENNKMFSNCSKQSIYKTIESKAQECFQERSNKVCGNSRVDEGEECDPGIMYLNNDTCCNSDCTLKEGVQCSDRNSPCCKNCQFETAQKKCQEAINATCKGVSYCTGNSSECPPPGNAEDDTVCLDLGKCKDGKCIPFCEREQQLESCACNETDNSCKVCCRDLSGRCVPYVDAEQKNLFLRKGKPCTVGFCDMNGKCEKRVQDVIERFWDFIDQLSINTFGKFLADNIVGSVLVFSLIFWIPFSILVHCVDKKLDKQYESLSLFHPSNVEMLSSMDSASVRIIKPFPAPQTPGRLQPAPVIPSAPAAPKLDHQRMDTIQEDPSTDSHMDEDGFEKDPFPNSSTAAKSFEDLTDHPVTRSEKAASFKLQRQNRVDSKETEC
T4 sequence (P08254 100-272 limits assumed): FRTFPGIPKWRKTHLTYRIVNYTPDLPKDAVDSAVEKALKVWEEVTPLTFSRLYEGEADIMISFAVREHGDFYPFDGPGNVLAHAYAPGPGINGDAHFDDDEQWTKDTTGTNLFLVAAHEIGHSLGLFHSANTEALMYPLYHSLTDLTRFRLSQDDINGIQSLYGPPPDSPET
T3 sequence (P22894 101-467): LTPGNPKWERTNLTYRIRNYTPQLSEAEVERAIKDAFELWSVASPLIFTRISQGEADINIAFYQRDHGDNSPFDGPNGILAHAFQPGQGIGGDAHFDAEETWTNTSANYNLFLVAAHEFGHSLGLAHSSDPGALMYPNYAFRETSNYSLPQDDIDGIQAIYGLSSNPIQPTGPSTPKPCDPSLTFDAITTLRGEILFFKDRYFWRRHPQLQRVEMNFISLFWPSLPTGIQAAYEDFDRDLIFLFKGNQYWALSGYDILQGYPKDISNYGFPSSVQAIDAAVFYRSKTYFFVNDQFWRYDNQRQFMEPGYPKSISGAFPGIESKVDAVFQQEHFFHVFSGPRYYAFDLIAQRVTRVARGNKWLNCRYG
Experimental for Human MMP13: Human MMP13 (Chemicon #CC068) in amount of 90 μL (200 ng) was activated by mixing with 10 μL of 10 mM APMA, followed by reaction for 1 hour at 37° C. This enzyme solution in amount of 0.6 μL was diluted to 90 μL with the assay buffer A, which was added to 90 μL of 20 μM fluorescent substrate (Dnp-Pro-Cha-Gly-Cys(Me)-His-Ala-Lys(Nma)-NH2) prepared in the assay buffer B, followed by reaction for 4 hours at 37° C.
Experimental for Human MMP2: This enzyme solution in amount of 10 μL was diluted to 90 μL with the assay buffer A, which was added to 90 μL of 20 μM fluorescent substrate (MOCAc((7-methoxycoumarin-4-yl)acetyl)-Pro-Leu-Gly-Leu-A2pr(Dnp)-Ala-Arg-NH2, Peptide Institute, Inc., #3163-v) prepared in the assay buffer B, followed by reaction for 5 hours at 37° C.
Experimental for Human MMP9: This enzyme solution in amount of 1 μL was diluted to 90 μL with the assay buffer A, which was added to 90 μL of 20 μM fluorescent substrate (Dnp-Pro-Cha-Gly-Cys(Me)-His-Ala-Lys(Nma)-NH2) prepared in the assay buffer B, followed by reaction for 4 hours at 37° C.
Experimental for TACE: TACE inhibition experiments were conducted using TACE obtained as above as an enzyme and by measuring TACE activity in the presence or absence of a test substance using Nma (N-metylanthranilic acid)-[sequence]Dnp(dinitrophenyl)-D-Arg-NH2 being a fluorescent synthetic substrate which contains the sequence of cleavage site of membrane-bound TNF by TACE, as a substrate.
More specifically, 14 units of an enzyme solution (1 unit is defined as the amount of enzyme which degrades 1 pmol of the substrate per minute at 25° C.) which was prepared in 90 μL of assay buffer A (50 mM Tris-HCl buffer (pH 7.5) containing 200 mM sodium chloride, 5 mM calcium chloride, 10 μM zinc sulfate, 0.004% sodium azide and 2 mg/mL bovine serum albumin) and 90 μL of 20 μM fluorescent synthetic substrate prepared in assay buffer B (50 mM Tris-HCl buffer (pH 7.5) containing 200 mM sodium chloride, 5 mM calcium chloride, 10 μM zinc sulfate, 0.004% sodium azide and 0.05% PLURONIC F-68) are mixed and reacted for 2 hours at 37° C.

On to `Cc1cc(COc2ccc(S(=O)(=O)CC(CC3CCC(=NO)CC3)N(O)C=O)cc2)c2ccccc2n1` (centres unmarked) [Example I-27], for which the IC50 at Human MMP14 amounted to 30 µM; on Human MMP1, 50 µM; at Human MMP8, 8 µM.

As to `Cc1cc(COc2ccc(S(=O)(=O)CC(C=C3CCOCC3)N(O)C=O)cc2)c2ccccc2n1` (single isomer, unassigned) [Example I-33, N-hydroxy-N-{2-[4-(2-methylquinolin-4-ylmethoxy)benzenesulfonyl]-1-(tetrahydropyran-4-ylidenemethyl)ethyl}formamide], the IC50 on Human MMP3 is 4.2 µM; on Human MMP2 it was 28 µM; on Human MMP13 it was 32 µM; at Human MMP9, greater than 100 µM; on Human MMP17 it was 2.2 µM; at Human MMP14 it was 77 µM. Also, the IC50 was greater than 100 µM on Human MMP1 and 23 µM at Human MMP8.

Consider `O=CN(O)C(C=C1CCC(=O)CC1)CS(=O)(=O)c1ccc(OCc2ccc3ccccc3n2)cc1` (centres unmarked) [Example I-84], for which the IC50 against TACE is 0.55 µM; on Human MMP3, 78 µM; on Human MMP2, 6.6 µM; at Human MMP13 it was 28 µM; at Human MMP17, 42 µM; on Human MMP14, 90 µM. For the same compound, the IC50 on Human MMP1 and on Human MMP8 was greater than 100 µM each time.

Take `Cc1cc(COc2ccc(S(=O)(=O)CC(C=C3CCC(=NO)CC3)N(O)C=O)cc2)cc(C)n1` (centres unmarked) [Example I-111]: the IC50 against TACE was 0.05 µM; at Human MMP3, 30 µM; at Human MMP2, 4.1 µM; on Human MMP13 it was 8 µM; at Human MMP9, greater than 100 µM; on Human MMP17, 30 µM. The IC50 on Human MMP14 and on Human MMP1 was greater than 100 µM in each case.

`CC(=O)N1CCCC(C(CS(=O)(=O)c2ccc(OCc3cc(C)nc4ccccc34)cc2)N(O)C=O)C1` (centres unmarked) [Example I-133]: the IC50 is 0.026 µM against TACE; 1.7 µM on Human MMP3; 28 µM on Human MMP2; 25 µM at Human MMP13; greater than 100 µM at Human MMP9; 0.9 µM at Human MMP17. The IC50 is greater than 100 µM on Human MMP1 and 18 µM at Human MMP8.

With `Cc1cc(COc2ccc(S(=O)(=O)CC(C3CCC(=O)CC3)N(O)C=O)cc2)c2ccccc2n1` (centres unmarked) [Example I-11, N-Hydroxy-N-{2-[4-(2-methylquinolin-4-ylmethoxy)benzenesulfonyl]-1-(4-oxocyclohexyl)ethyl}formamide], the IC50 against TACE (setting [1]) worked out at 0.02 µM; on Human MMP3 it was 2 µM; on Human MMP2, 30 µM; at Human MMP13 it was 7 µM; at Human MMP9 (setting [1]), 28 µM; on Human MMP17 it was 0.6 µM. The IC50 at Human MMP14 was 35 µM; on Human MMP1, 45 µM.

Consider `COc1cc(C)cc(COc2ccc(S(=O)(=O)CC(C=C3CCC4(CC3)OCCO4)N(O)C=O)cc2)c1` (centres unmarked) [Example I-95], for which the IC50 on TACE is 1.5 µM; at Human MMP3 it was greater than 100 µM; on Human MMP2, greater than 100 µM; on Human MMP13, greater than 100 µM; on Human MMP9, greater than 100 µM; at Human MMP17, greater than 100 µM. Further, the IC50 on Human MMP14 and on Human MMP1 was greater than 100 µM in each case.

As for `Cc1cc(COc2ccc(S(=O)(=O)CC(CC3CCC(=NO)CC3)N(O)C=O)cc2)cc(C)n1` (centres unmarked) [Example I-112], the IC50 against TACE was determined as 0.063 µM; on Human MMP3 it was 4 µM; at Human MMP2, 1.3 µM; on Human MMP13 it was 2 µM; on Human MMP9, 40 µM; at Human MMP17, 4 µM. Further, the values for the IC50 at Human MMP14 and at Human MMP1 were 60 µM and greater than 100 µM, respectively.

Usually IC50 stands for the point on the concentration scale where inhibition reaches its midpoint.

(Values after patent publication US7511144B2, “Reverse hydroxamic acid derivatives” (Kaken Pharmaceutical Co., Ltd., priority 2001, dated 2009).)
